Results on one compound are retold here after ChEMBL document CHEMBL4152229, “Synthesis and biological evaluation of 2,6-disubstituted-9H-purine, 2,4-disubstitued-thieno[3,2-d]pyrimidine and -7H-pyrrolo[2,3-d]pyrimidine analogues as novel CHK1 inhibitors” (Eur J Med Chem, 2018).

Activity calls are given as the source filed them. The calls are words filed in the database; no cut-off is given here.

The target in experiment [1] is Cyclin-dependent kinase 2 (Homo sapiens) (UniProt P24941). Description: Inhibition of DNA-tagged CDK2 (unknown origin) expressed in HEK293 cells at 10 uM after 1 hr by real-time fluorescent quantitative PCR analysis. The experiment is classed as cell-based.
In experiment [2] the target is Tyrosine-protein kinase BTK (Homo sapiens) (UniProt Q06187). Description: Inhibition of DNA-tagged BTK (unknown origin) expressed in HEK293 cells at 10 uM after 1 hr by real-time fluorescent quantitative PCR analysis. Type of experiment: cell-based.
Experiment [3] deals with Serine/threonine-protein kinase Chk2 (Homo sapiens) (UniProt O96017). Description: Inhibition of DNA-tagged CHK2 (unknown origin) expressed in HEK293 cells at 10 uM after 1 hr by real-time fluorescent quantitative PCR analysis. The experiment is classed as cell-based.
The subject of experiment [4] is HT-29. Description: Potentiation of gemcitabine-induced cell cycle arrest in human HT-29 cells assessed as accumulation at G1 phase at 10 uM after 48 hrs by propidium iodide/RNase staining-based flow cytometric analysis (reference value: 62.1%). Type of experiment: functional.
Experiment [5] addresses T1, Serine/threonine-protein kinase Chk1 (Homo sapiens, UniProt O14757).
T1 sequence (O14757 whole entry): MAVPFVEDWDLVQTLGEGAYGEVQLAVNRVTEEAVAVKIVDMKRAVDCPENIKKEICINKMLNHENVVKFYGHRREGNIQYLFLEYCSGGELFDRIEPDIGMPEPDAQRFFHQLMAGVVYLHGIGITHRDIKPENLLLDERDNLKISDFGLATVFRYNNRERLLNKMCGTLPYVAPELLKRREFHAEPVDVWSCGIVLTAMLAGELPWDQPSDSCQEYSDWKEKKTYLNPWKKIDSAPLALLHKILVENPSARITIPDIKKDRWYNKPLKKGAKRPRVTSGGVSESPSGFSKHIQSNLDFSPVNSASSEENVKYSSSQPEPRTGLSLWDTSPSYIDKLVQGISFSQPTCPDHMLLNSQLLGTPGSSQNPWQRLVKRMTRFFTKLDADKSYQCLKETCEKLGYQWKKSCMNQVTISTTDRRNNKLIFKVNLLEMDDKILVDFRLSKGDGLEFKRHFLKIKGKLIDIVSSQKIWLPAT
Description: Inhibition of CHK1 (unknown origin) using Cdc25 peptide as substrate preincubated for 30 mins followed by substrate addition and measured after 60 mins by ADP-Glo kinase assay.

For experiment [6], the target named is cAMP-dependent protein kinase catalytic subunit alpha (Homo sapiens) (UniProt P17612). Description: Inhibition of DNA-tagged PKACalpha (unknown origin) expressed in HEK293 cells at 10 uM after 1 hr by real-time fluorescent quantitative PCR analysis. Type of experiment: cell-based.
Experiment [7] deals with Epidermal growth factor receptor (Homo sapiens) (UniProt P00533). Description: Inhibition of DNA-tagged EGFR (unknown origin) expressed in HEK293 cells at 10 uM after 1 hr by real-time fluorescent quantitative PCR analysis. Type of experiment: cell-based.
For experiment [8], the target named is Mitogen-activated protein kinase 1 (Homo sapiens) (UniProt P28482). Description: Inhibition of DNA-tagged MAPK1 (unknown origin) expressed in HEK293 cells at 10 uM after 1 hr by real-time fluorescent quantitative PCR analysis. The experiment is classed as cell-based.
Experiment [9] deals with HT-29. Description: Cell cycle arrest in human HT-29 cells assessed as accumulation at G1 phase at 10 uM after 48 hrs by propidium iodide/RNase staining-based flow cytometric analysis (reference value: 62.1%). Type of experiment: functional.
Experiment [10] concerns the target RAC-alpha serine/threonine-protein kinase (Homo sapiens) (UniProt P31749). Description: Inhibition of DNA-tagged AKT1 (unknown origin) expressed in HEK293 cells at 10 uM after 1 hr by real-time fluorescent quantitative PCR analysis. Type of experiment: cell-based.
The test system of experiment [11] is HT-29. Description: Cell cycle arrest in human HT-29 cells assessed as accumulation at G2 phase at 10 uM after 48 hrs by propidium iodide/RNase staining-based flow cytometric analysis (reference value: 7.0%). The experiment is classed as functional.
The subject of experiment [12] is HT-29. Description: cells. The conditions noted are these: Homo sapiens, HT-29, 72 h.
Description: Antiproliferative activity against human HT-29 cells after 72 hrs by MTS assay
The test system of another experiment is HEK293. Description: Antiproliferative activity against human HEK293 cells after 72 hrs by MTS assay. The experiment is classed as functional. Particulars: HEK293, 72 h.
The target of experiment [13] is ALK tyrosine kinase receptor (Homo sapiens) (UniProt Q9UM73). Description: Inhibition of DNA-tagged ALK (unknown origin) expressed in HEK293 cells at 10 uM after 1 hr by real-time fluorescent quantitative PCR analysis. The experiment is classed as cell-based.
Experiment [14] concerns the target T2, Ephrin type-B receptor 4 (Homo sapiens) (UniProt P54760).
T2 sequence (whole entry): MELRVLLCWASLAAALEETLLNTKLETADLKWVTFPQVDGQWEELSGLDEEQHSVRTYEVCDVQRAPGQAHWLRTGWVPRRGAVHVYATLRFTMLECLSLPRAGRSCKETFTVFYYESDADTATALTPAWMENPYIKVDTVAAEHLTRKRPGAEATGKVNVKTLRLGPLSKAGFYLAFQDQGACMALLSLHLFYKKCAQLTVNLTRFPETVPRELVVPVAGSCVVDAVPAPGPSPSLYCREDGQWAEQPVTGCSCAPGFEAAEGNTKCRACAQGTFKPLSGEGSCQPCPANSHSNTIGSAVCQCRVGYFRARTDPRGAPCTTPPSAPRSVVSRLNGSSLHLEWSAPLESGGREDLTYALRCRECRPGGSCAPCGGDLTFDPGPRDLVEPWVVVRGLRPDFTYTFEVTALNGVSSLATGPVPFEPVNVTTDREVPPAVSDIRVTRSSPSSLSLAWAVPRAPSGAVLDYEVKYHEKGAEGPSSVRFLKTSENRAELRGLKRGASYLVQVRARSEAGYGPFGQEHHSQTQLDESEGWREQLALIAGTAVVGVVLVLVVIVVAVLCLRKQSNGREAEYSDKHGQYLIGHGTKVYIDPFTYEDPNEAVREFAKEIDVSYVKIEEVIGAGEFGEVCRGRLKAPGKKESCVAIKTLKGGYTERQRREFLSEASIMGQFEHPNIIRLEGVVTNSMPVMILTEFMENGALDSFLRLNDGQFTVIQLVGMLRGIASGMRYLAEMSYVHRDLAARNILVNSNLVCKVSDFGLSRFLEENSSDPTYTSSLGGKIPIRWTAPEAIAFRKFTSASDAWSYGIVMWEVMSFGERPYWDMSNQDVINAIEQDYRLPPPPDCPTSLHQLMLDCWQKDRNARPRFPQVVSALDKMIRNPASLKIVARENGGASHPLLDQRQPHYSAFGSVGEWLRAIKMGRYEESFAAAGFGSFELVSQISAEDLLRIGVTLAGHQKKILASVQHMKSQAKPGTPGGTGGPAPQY
Description: Inhibition of DNA-tagged EPHB4 (unknown origin) expressed in HEK293 cells at 10 uM after 1 hr by real-time fluorescent quantitative PCR analysis. The experiment is classed as cell-based.

Experiment [15] has as its system HT-29. Description: Inhibition of colony formation in human HT-29 cells at <10 uM after 2 weeks by crystal violet staining-based assay. Type of experiment: functional, cell-based.

Mitogen-activated protein kinase 1 (Homo sapiens), sequence (P28482 whole entry): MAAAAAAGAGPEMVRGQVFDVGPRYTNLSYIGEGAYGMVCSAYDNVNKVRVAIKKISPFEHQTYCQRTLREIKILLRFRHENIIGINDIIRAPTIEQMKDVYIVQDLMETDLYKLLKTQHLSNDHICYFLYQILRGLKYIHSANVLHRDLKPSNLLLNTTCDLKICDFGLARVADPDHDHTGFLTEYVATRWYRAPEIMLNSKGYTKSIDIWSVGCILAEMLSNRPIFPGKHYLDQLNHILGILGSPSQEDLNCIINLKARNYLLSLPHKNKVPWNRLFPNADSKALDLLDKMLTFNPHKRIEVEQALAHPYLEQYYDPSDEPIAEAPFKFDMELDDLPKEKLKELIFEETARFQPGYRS
Tyrosine-protein kinase BTK (Homo sapiens), sequence (Q06187 whole entry): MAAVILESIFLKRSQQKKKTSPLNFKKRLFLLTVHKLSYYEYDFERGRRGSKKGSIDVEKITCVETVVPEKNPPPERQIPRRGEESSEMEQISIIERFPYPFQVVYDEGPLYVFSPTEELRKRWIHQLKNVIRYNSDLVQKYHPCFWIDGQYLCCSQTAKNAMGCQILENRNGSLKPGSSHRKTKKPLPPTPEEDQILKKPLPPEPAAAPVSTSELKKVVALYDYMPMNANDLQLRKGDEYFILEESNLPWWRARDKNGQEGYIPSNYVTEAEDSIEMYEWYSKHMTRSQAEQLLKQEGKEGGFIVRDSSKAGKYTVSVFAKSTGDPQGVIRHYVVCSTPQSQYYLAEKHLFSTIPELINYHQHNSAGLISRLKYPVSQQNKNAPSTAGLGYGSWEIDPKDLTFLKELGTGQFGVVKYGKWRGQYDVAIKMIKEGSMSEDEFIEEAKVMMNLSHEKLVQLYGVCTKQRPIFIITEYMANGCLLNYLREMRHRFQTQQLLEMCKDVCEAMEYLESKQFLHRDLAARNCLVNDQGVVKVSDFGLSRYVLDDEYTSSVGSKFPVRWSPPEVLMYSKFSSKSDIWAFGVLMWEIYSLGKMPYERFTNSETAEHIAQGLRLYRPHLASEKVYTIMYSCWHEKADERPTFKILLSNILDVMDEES
RAC-alpha serine/threonine-protein kinase (Homo sapiens), sequence (P31749 whole entry): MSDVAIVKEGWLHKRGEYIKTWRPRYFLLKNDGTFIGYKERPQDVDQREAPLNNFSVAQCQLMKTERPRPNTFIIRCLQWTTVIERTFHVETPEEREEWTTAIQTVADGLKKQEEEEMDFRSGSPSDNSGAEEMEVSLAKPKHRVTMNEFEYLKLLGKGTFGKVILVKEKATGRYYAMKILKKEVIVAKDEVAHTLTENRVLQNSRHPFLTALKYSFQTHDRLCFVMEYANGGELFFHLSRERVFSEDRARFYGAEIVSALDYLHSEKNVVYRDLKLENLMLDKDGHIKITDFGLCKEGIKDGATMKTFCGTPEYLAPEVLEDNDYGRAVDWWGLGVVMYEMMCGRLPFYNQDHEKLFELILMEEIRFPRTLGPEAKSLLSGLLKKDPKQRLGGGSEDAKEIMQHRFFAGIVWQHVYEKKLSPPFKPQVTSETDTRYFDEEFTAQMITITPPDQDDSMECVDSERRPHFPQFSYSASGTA
ALK tyrosine kinase receptor (Homo sapiens), sequence (Q9UM73 19-1620 limits assumed): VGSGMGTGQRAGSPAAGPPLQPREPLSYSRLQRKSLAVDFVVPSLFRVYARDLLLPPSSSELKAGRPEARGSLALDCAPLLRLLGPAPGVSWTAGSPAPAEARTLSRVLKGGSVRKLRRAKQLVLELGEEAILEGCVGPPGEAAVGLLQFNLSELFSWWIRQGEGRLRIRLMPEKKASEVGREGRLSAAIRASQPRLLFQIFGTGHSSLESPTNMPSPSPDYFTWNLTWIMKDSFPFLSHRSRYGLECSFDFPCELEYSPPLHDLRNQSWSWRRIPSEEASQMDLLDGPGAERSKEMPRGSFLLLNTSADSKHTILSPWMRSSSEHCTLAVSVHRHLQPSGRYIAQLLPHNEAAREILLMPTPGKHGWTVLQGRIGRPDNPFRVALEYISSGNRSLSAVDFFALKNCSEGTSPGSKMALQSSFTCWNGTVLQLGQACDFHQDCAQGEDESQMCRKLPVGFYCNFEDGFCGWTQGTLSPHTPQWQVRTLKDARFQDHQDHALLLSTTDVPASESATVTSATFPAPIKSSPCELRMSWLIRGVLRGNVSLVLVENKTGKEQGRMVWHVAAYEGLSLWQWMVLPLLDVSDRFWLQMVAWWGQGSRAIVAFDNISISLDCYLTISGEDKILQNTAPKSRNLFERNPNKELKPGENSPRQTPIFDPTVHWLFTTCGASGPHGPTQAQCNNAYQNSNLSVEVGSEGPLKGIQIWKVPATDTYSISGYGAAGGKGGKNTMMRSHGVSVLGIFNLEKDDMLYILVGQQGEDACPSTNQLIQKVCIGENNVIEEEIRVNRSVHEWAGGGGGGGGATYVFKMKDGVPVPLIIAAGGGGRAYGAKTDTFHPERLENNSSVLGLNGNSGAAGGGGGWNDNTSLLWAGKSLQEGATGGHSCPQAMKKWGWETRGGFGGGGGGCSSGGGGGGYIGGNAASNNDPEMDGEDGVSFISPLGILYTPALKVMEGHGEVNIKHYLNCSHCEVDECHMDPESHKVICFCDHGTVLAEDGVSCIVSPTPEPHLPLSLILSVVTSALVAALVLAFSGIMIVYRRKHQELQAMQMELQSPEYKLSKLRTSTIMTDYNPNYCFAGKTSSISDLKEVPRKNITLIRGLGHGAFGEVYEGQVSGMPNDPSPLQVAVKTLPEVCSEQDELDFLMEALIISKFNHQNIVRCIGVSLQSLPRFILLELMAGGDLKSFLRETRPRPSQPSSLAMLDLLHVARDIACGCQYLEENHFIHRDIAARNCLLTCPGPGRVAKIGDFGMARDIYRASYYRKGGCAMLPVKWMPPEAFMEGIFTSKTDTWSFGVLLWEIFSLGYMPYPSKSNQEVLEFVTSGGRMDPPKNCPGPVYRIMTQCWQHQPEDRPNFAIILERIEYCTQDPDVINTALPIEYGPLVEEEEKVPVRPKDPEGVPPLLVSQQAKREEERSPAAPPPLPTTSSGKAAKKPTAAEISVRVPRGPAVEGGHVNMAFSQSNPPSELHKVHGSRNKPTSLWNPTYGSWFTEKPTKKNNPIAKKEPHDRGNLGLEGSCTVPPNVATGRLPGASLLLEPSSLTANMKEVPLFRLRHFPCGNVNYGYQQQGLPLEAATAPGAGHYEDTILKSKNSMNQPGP
Epidermal growth factor receptor (Homo sapiens), sequence (P00533 whole entry): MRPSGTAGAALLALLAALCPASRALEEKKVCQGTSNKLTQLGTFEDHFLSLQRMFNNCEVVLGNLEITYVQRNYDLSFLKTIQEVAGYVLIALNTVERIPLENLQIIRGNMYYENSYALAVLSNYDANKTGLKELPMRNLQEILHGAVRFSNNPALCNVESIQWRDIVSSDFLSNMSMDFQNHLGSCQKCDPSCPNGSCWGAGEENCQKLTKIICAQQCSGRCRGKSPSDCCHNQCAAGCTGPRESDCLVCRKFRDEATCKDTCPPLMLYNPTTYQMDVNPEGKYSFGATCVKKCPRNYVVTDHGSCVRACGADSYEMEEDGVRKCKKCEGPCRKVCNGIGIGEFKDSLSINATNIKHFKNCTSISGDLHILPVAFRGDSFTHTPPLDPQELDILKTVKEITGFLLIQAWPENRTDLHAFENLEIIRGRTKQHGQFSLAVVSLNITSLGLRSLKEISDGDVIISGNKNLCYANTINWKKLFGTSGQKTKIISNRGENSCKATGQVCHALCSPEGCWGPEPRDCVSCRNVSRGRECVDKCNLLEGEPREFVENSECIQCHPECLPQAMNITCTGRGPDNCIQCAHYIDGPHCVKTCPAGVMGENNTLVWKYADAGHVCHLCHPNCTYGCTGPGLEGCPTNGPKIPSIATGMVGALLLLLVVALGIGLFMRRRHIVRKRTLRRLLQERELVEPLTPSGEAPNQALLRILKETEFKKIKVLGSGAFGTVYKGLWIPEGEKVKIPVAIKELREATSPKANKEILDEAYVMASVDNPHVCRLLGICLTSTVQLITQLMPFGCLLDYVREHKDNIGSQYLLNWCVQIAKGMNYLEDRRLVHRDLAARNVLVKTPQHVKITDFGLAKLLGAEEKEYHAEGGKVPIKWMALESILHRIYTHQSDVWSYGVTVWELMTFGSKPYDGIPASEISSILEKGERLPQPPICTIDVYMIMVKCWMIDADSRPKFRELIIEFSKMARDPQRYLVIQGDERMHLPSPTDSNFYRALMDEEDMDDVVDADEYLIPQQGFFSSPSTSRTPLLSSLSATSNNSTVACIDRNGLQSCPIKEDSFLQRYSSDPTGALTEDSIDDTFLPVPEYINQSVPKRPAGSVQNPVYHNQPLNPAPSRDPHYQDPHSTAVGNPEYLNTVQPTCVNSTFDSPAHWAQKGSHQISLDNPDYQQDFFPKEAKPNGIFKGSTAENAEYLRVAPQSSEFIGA
Serine/threonine-protein kinase Chk2 (Homo sapiens), sequence (O96017 whole entry): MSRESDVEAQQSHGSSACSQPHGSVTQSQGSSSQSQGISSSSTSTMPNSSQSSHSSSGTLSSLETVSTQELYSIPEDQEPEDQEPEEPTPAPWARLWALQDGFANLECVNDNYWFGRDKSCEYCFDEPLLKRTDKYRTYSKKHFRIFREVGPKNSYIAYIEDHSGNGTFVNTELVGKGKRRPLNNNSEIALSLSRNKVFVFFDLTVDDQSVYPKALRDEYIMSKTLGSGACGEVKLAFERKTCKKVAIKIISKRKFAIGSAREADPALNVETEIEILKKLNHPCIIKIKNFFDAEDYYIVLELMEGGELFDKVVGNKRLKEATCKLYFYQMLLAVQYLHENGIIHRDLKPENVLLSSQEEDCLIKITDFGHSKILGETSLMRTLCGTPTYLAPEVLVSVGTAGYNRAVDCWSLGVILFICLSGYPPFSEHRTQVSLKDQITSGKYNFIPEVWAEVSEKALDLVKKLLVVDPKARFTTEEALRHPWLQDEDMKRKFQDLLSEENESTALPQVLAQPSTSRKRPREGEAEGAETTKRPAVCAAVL

With `Fc1ccc(Nc2nc(N3CCOCC3)c3nc[nH]c3n2)cc1`, the inhibition in [1] was 73%; in [2] it was 35%; in experiment [3] it was 72%; in experiment [6], 0%; in [7], 0%; in experiment [8], 33%. For the same compound, the inhibition in [10] amounted to 0%; in experiment [13], 1%; in experiment [14] it was 23%. Besides, the results for the Activity in the experiment with HT-29 [4], in the experiment with HT-29 [9] and in the experiment on HT-29 [11] were 13.8%, 60% and 10.5%, respectively. Further, the IC50 in [5] came to 0.684 µM. In addition, the GI50 in the experiment on HT-29 [12] and with HEK293 was more than 100 µM throughout. In addition, the inhibition result in the experiment with HT-29 [15] is “inactive”.
